Tests used:
[1] = tested on: HylA; settings: reference GapA, individual synthetic biopeptides, 50 μg per assay
[2] = tested on: HilA; assay: qPCR of HilA down-regulation in Salmonella; format: cell-based, Salmonella enterica typhimurium DT104; settings: reference 16S, individual synthetic biopeptides, 50 μg per assay
Excerpt: The cell-free supernatant was separated using Sephadex G75 resin. The samples were separated and collected into fractions: Fraction 1 (>163000 Da), Fraction 2 (163000-14500 Da), Fraction 3 (14500-1300 Da), Fraction 4 (1300-110 Da), Fraction 5 (110-10 Da). The samples were collected and assayed by qPCR using Salmonella enterica typhimurium DT104 strain. The down-regulation of HilA was compared to the reference gene 16S.
The active fraction from G75 size exclusion chromatography was further separated using reverse phase chromatography. The fractions from the reverse phase: Fraction 1 (0-2 min), Fraction 2 (2-4 min), Fraction 3 (4-16 min), Fraction 4 (16-32 min), Fraction 5 (32-40 min), Fraction 6 (40-58 min). The fractions were dried and neutralized to remove acetonitrile and trifluoroacetic acid from the solvent. The dried fractions were assayed using the same qPCR assay conditions as above. The fractions were analyzed by de novo sequencing at the University of Guelph Advance Analytical center. The peptides from the active fractions of 6 batches were compared and common peptides from batches were deduced.
Additionally, the 1×sample from each probiotic culture was tested using the Salmonella qPCR assay described in example 1 or a Lactate Dehydrogenase (LDH) assay using either UPEC 099 or Staphylococcus aureus 81M. For the LDH assay the dried cell-free supernatant was resuspended into 5 mL of lysogeny broth and inoculated with either UPEC 099 or Staphylococcus aureus 81M and incubated for 4 hours. After incubation, the samples were centrifuged and the supernatant was assayed. A 100 μL aliquot of supernatant was added to 1 mL mammalian HT29 cells at 1×10^6 cells per mL in a 12-well plate. The samples were incubated for 45 minutes at 37° C. and 5% CO2. The supernatant was then assayed using the manufacture's protocol (Pierce LDH Cytotoxicity assay kit, Thermo Scientific, Rockford, Il, USA). The percent inhibition was calculated using the no treatment control and a detergent lysed control using the formula provided in the protocol (Table 3).

[3] = tested on: MRSA; settings: after a 24 hour incubation; cited from earlier work
[4] = tested on: Staphylococcus aureus (strain alias LA-414M SPA t034); assay: Cefoxitin MIC testing with and without cell-free supernatant; format: cell-based; settings: MRSA LA 414M
Excerpt: (§1) Three methicillin resistant Staphylococci (MRS) strains were used in these experiments: 1) Staphylococcus pseudintermedius (strain alias C260 22-2011 dtqa), a clinical isolate from a dog skin infection; 2) Staphylococcus aureus (strain alias LA-414M SPA t034), a livestock-associated strain isolated from beef purchased from a grocery store in Charlottetown, PEI, Canada; and 3) Staphylococcus aureus (strain alias 81M SPA t008), isolated from poultry meat purchased from a grocery store in Charlottetown, PEI, Canada. All three MRS strains were provided by the Atlantic Veterinary College (AVC) at the University of Prince Edward Island. The methicillin-resistance of these strains was confirmed by AVC staff using an oxacillin disk diffusion method. The strains were originally cultured on sheep blood agar slants, and then transferred to lysogeny broth agar plates. Cefoxitin resuspended in methanol was used for antibiotic resistance testing, and growth was tested in two different media types, standard Lysogeny Broth and standard BBL™ Cation-Adjusted Mueller-Hinton Medium (Becton, Dickinson and Company). The minimum inhibitory concentrations (MICs) of the cefoxitin was determined for each strain in each respective medium in the presence and absence of the cell-free supernatant. Assays were performed according to the Clinical and Laboratory Standards Institute (CLSI) guidelines for MIC testing of Staphylococcal species [CLSI, 2015] as well as the European Committee for Antimicrobial Susceptibility Testing (EUCAST) of the European Society of Clinical Microbiology and Infectious Diseases [EUCAST, 2003].
(§2) The protocol for MIC testing was as follows. The cell-free supernatants were resuspended in the respective media and filter sterilized through a […] pore size filter. The required concentration of dried cell free supernatant was weighed and added at concentrations ranging from 0-60 mg/mL. Cefoxitin was added to obtain final concentrations ranging from 0-250 μg/mL. Cultures of each respective strain were grown overnight in either lysogeny broth or Mueller Hinton for 16-20 hours at 37° C. and 200 rpm shaking in aerobic conditions to achieve optical densities at 600 nm (OD600) of 1.2-1.6. […] The cultures (150 μL) were grown in a 96-well clear flat-bottom microtiter plate. The microtiter plate was then covered in parafilm and incubated at 35° C.±2° C. for 24 hours. Following incubation, microplates were read at 600 nm using a microplate reader. […] The data is the average from two technical replicates from two biological replicates.

[5] = tested on: Staphylococcus pseudintermedius (strain alias C260 22-2011 dtqa); assay: as above; format: cell-based; settings: MSRP C260, Lysogeny Broth
Excerpt: as §1, §2

[6] = tested on: Staphylococcus aureus (strain alias 81M SPA t008); assay: Cefoxitin MIC testing with and without cell-free supernatant or size exclusion fractions; format: cell-based
Excerpt: as §1, §2
For the size exclusion chromatography the sample was separated using a Sephadex G75 resin. The samples were separated and collected into fractions: Fraction 1 (>163000 Da), Fraction 2 (163000-14500 Da), Fraction 3 (14500-1300 Da), Fraction 4 (1300-110 Da), Fraction 5 (110-10 Da).

## LKPTPEGD
[1]
  Fold down-regulation: 4.69 Fold
[2]
  Fold down-regulation: 11.08 Fold

## Lactobacillus acidophilus
[3]
  MRSA cells eliminated: 99%

## CVLPPK
[1]
  Fold down-regulation: 3.20 Fold
[2]
  Fold down-regulation: 3.75 Fold

## HLLPLP
[1]
  Fold down-regulation: 2.64 Fold
[2]
  Fold down-regulation: 2.93 Fold

## YPVEPF [peptide identified in WO 2009/155711]
[1]
  Fold down-regulation: 1.03 Fold
[2]
  Fold down-regulation: 0.68 Fold

## YPPGGP [peptide identified in WO 2009/155711]
[1]
  Fold down-regulation: 3.56 Fold
[2]
  Fold down-regulation: 2.93 Fold

## CO[C@@]1(NC(=O)Cc2cccs2)C(=O)N2C(C(=O)O)=C(COC(N)=O)CS[C@@H]21 [cefoxitin]
[4]; Lysogeny Broth, 0 mg/mL dried cell-free supernatant
  Range of Cefoxitin concentration to inhibition growth to O.D. <0.1: 30 to 40 µg/mL
[4]; Lysogeny Broth, 5 mg/mL dried cell-free supernatant
  Range of Cefoxitin concentration to inhibition growth to O.D. <0.1: 15 to 20 µg/mL
[4]; Lysogeny Broth, 30 mg/mL dried cell-free supernatant
  Range of Cefoxitin concentration to inhibition growth to O.D. <0.1: 15 to 20 µg/mL
[4]; Lysogeny Broth, 60 mg/mL dried cell-free supernatant
  Range of Cefoxitin concentration to inhibition growth to O.D. <0.1: 10 to 15 µg/mL
[4]; Mueller-Hinton Broth, 0 mg/mL dried cell-free supernatant
  Range of Cefoxitin concentration to inhibition growth to O.D. <0.1: 50 to 60 µg/mL
[4]; Mueller-Hinton Broth, 5 mg/mL dried cell-free supernatant
  Range of Cefoxitin concentration to inhibition growth to O.D. <0.1: 40 to 50 µg/mL
[4]; Mueller-Hinton Broth, 30 mg/mL dried cell-free supernatant
  Range of Cefoxitin concentration to inhibition growth to O.D. <0.1: 20 to 30 µg/mL
[4]; Mueller-Hinton Broth, 60 mg/mL dried cell-free supernatant
  Range of Cefoxitin concentration to inhibition growth to O.D. <0.1: 20 to 30 µg/mL
[5]; 0 mg/mL dried cell-free supernatant
  Range of Cefoxitin concentration to inhibition growth to O.D. <0.1: 125 to 175 µg/mL
[5]; 5 mg/mL dried cell-free supernatant
  Range of Cefoxitin concentration to inhibition growth to O.D. <0.1: 50 to 75 µg/mL
[5]; 30 mg/mL dried cell-free supernatant
  Range of Cefoxitin concentration to inhibition growth to O.D. <0.1: 20 to 30 µg/mL
[5]; 60 mg/mL dried cell-free supernatant
  Range of Cefoxitin concentration to inhibition growth to O.D. <0.1: 20 to 30 µg/mL
[6]; MRSA 81M, Lysogeny Broth, 0 mg/mL dried cell-free supernatant
  Range of Cefoxitin concentration to inhibition growth to O.D. <0.1: 75 to 125 µg/mL
[6]; MRSA 81M, Lysogeny Broth, 5 mg/mL dried cell-free supernatant
  Range of Cefoxitin concentration to inhibition growth to O.D. <0.1: 40 to 50 µg/mL
[6]; MRSA 81M, Lysogeny Broth, 30 mg/mL dried cell-free supernatant
  Range of Cefoxitin concentration to inhibition growth to O.D. <0.1: 30 to 40 µg/mL
[6]; MRSA 81M, Lysogeny Broth, 60 mg/mL dried cell-free supernatant
  Range of Cefoxitin concentration to inhibition growth to O.D. <0.1: 30 to 40 µg/mL
[6]; MRSA 81M, Mueller-Hinton Broth, 0 mg/mL dried cell-free supernatant
  Range of Cefoxitin concentration to inhibition growth to O.D. <0.1: 75 to 100 µg/mL
[6]; MRSA 81M, Mueller-Hinton Broth, 5 mg/mL dried cell-free supernatant
  Range of Cefoxitin concentration to inhibition growth to O.D. <0.1: 40 to 50 µg/mL
[6]; MRSA 81M, Mueller-Hinton Broth, 30 mg/mL dried cell-free supernatant
  Range of Cefoxitin concentration to inhibition growth to O.D. <0.1: 30 to 40 µg/mL
[6]; MRSA 81M, Mueller-Hinton Broth, 60 mg/mL dried cell-free supernatant
  Range of Cefoxitin concentration to inhibition growth to O.D. <0.1: 20 to 30 µg/mL
[6]; Staphylococcus aureus 81M, control, cefoxitin only (0 mg/mL), Table 5
  Range of Cefoxitin concentration to inhibition growth to O.D. <0.1: 60 to 75 µg/mL

## MALPPK
[1]
  Fold down-regulation: 9.06 Fold
[2]
  Fold down-regulation: 19.56 Fold
